Reference: patent US20100317848A1, “PROCESS FOR THE SYNTHESIS OF DERIVATIVES OF 3-AMINO-TETRAHYDROFURAN-3-CARBOXYLIC ACID AND USE THEREOF AS MEDICAMENTS” (BOEHRINGER INGELHEIM INTERNATIONAL GMBH, priority 2006, published 2010)
Converted amounts (≈) assume the structure as drawn. “Also recorded” adds a separate entry of the source. One block for each compound: values may come before it.

Tests used:
[1] = target: T1, human factor Xa (Homo sapiens, UniProt P00742); experiment: Inhibition of factor Xa, enzyme-kinetic measurement with chromogenic substrate; format: biochemical; conditions: FXa assay; (S)-form versus (R)-form at the tetrahydrofuran carbon
T1 construct: released from the colourless chromogenic substrate by human factor Xa; purchased Calbiochem
Method: The compounds listed in the Experimental Section were investigated for their effect on the inhibition of factor Xa as follows:
Enzyme-kinetic measurement with chromogenic substrate. The quantity of p-nitroaniline (pNA) released from the colourless chromogenic substrate by human factor Xa is determined photometrically at 405 nm. It is proportional to the activity of the enzyme used. The inhibition of the enzyme activity by the test substance (in relation to the solvent control) is determined at various concentrations of test substance and from this the IC50 is calculated, as the concentration which inhibits the factor Xa used by 50%.
Tris(hydroxymethyl)-aminomethane buffer (100 mMol) and sodium chloride (150 mMol), pH 8.0 plus 1 mg/ml Human Albumin Fraction V, protease-free Factor Xa (Calbiochem), spec. activity: 217 IU/mg, final concentration: 7 IU/ml for each reaction mixture Substrate S 2765 (Chromogenix), final concentration: 0.3 mM/l (1 KM) for each reaction mixture Test substance: final concentration 100, 30, 10, 3, 1, 0.3, 0.1, 0.03, 0.01, 0.003, 0.001 μMol/l
10 μl of a 23.5-times concentrated starting solution of the test substance or solvent (control), 175 μl of TRIS/HSA buffer and 25 μl of a 65.8 U/L Factor Xa working solution are incubated for 10 minutes at 37° C. After the addition of 25 μl of S 2765 working solution (2.82 mMol/l) the sample is measured in a photometer (SpectraMax 250) at 405 nm for 600 seconds at 37° C.
1. Determining the maximum increase (deltaOD/minutes) over 21 measuring points. 2. Determining the % inhibition based on the solvent control. 3. Plotting a dosage/activity curve (% inhibition vs substance concentration). 4. Determining the IC50 by interpolating the X-value (substance concentration) of the dosage/activity curve at Y=50% inhibition.

[2] = Intrinsic dissolution rate in aqueous media, rotating disc method; format: physicochemical; conditions: for dissolution rate: 37° C., 200 rpm
Method: The intrinsic dissolution rate was determined in aqueous media covering a range of pH 1.1-7.4 using the rotating disc method which maintains a constant surface area. 5 mg of drug substance was compressed to form a disc at 356.1 N for 60 s. These discs were mounted to specially designed sample holders which fit into a Sotax dissolution tester. The dissolution media (37° C.) were stirred at 200 rpm. Samples were automatically withdrawn every second minute from the dissolution vessel and assayed via UV spectrophotometry. The intrinsic dissolution rate expressed in μg/cm^2/min was calculated using the slope of the concentration versus time plot and from the linear portion of the slope of the dissolution curve, volume of dissolution medium (35 ml) and area (diameter: 2 mm) of the exposed disk.

[3] = Solubility in different aqueous media; format: physicochemical; conditions: for solubility: aqueous medium

T1 sequence (P00742 235-488 limits assumed): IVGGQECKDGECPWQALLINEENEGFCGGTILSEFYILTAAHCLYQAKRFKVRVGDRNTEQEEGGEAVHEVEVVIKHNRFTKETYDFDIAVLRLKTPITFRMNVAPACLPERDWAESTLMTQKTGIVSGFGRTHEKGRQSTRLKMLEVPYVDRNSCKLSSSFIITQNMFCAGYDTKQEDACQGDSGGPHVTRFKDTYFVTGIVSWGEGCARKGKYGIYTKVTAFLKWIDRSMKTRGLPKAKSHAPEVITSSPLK
T1 sequence (P00742 41-179 partner limits assumed): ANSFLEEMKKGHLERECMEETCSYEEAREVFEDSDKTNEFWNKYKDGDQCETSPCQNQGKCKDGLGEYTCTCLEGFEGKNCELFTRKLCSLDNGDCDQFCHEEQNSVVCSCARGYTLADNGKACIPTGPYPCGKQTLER

IC50 at an approximately x-fold lower plasma concentration compared to the (R)-enantiomer / corresponding (3R)-diastereoisomer [1]: approximately 10 fold
Structure (SMILES): C[C@H]1CN(C)CCc2ccc(NC(=O)[C@]3(NC(=O)c4ccc(Cl)s4)CCOC3)cc21 [(3S)-3-[(5-chloro-thiophen-2-yl)-carbonylamino]-N-((5R)-3,5-dimethyl-2,3,4,5-tetrahydro-1H-benzo[d]azepin-7-yl)-tetrahydrofuran-3-carboxylic acid amide]

IC50 at an approximately x-fold lower plasma concentration compared to the (R)-enantiomer / corresponding (3R)-diastereoisomer [1]: approximately 7 fold
Structure (SMILES): C[C@@H]1CN(C)CCc2ccc(NC(=O)[C@]3(NC(=O)c4ccc(Cl)s4)CCOC3)cc21 [(3S)-3-[(5-chloro-thiophen-2-yl)-carbonylamino]-N-((5S)-3,5-dimethyl-2,3,4,5-tetrahydro-1H-benzo[d]azepin-7-yl)-tetrahydrofuran-3-carboxylic acid amide]

IC50 at an approximately x-fold lower plasma concentration compared to the (R)-enantiomer / corresponding (3R)-diastereoisomer [1]: approximately 9 fold
Structure (SMILES): CN1CCc2ccc(NC(=O)[C@]3(NC(=O)c4ccc(Br)s4)CCOC3)cc2CC1 [(S)-3-[(5-bromo-thiophen-2-yl)-carbonylamino]-N-(3-methyl-2,3,4,5-tetrahydro-1H-benzo[d]azepin-7-yl)-tetrahydrofuran-3-carboxylic acid amide]

dissolution rate in words ([2]; pH 7.4): acceptable dissolution rates
dissolution rate ([2]; pH of aqueous medium 1.1): 8220 μg/cm^2/min
dissolution rate ([2]; pH of aqueous medium 2.3): 4520 μg/cm^2/min
dissolution rate ([2]; pH of aqueous medium 3.2): 4000 μg/cm^2/min
dissolution rate ([2]; pH of aqueous medium 4.1): 3110 μg/cm^2/min
dissolution rate ([2]; pH of aqueous medium 5.1): 4015 μg/cm^2/min
dissolution rate ([2]; pH of aqueous medium 6.0): 4140 μg/cm^2/min
dissolution rate ([2]; pH of aqueous medium 7.4): 240 μg/cm^2/min
dissolution rate in words ([2]; up to pH 6.0): very fast dissolution rates
IC50 at an approximately x-fold lower plasma concentration compared to the (R)-enantiomer / corresponding (3R)-diastereoisomer [1]: approximately 8 fold
solubility ([3]; aqueous buffer, medium: 0.01 N NaOH): 46 µg/mL (≈ 0.106 mM)
solubility ([3]; aqueous buffer, medium: pH 2.2): > 10000 µg/mL
solubility ([3]; aqueous buffer, medium: pH 4.0): > 10000 µg/mL
solubility ([3]; aqueous buffer, medium: pH 6.0): > 10000 µg/mL
solubility ([3]; aqueous buffer, medium: pH 7.4): 1800 µg/mL (≈ 4.15 mM)
solubility ([3]; simulated gastric fluid, medium: 0.1 N HCl): > 10000 µg/mL
solubility ([3]; medium: water): 280 µg/mL (≈ 0.645 mM)
pH of the saturated solution ([3]; medium: 0.01 N NaOH): 11.8
pH of the saturated solution ([3]; medium: 0.1 N HCl): 1.0
pH of the saturated solution ([3]; medium: pH 2.2): 2.4
pH of the saturated solution ([3]; medium: pH 4.0): 4.3
pH of the saturated solution ([3]; medium: pH 6.0): 6.3
pH of the saturated solution ([3]; medium: pH 7.4): 7.5
pH of the saturated solution ([3]; medium: water): 8.6
solubility in words ([3]; neutral and basic media): reduced solubility
Structure (SMILES): CN1CCc2ccc(NC(=O)[C@]3(NC(=O)c4ccc(Cl)s4)CCOC3)cc2CC1 [(S)-3-[(5-chloro-thiophen-2-yl)-carbonylamino]-N-(3-methyl-2,3,4,5-tetrahydro-1H-benzo[d]azepin-7-yl)-tetrahydrofuran-3-carboxylic acid amide]
solubility in words ([3]; acidic media): excellent solubility; also recorded: high solubility

IC50 at an approximately x-fold lower plasma concentration compared to the (R)-enantiomer / corresponding (3R)-diastereoisomer [1]: approximately 16 fold
Structure (SMILES): Cc1cc(NC(=O)[C@]2(NC(=O)c3ccc(Br)s3)CCOC2)ccc1N1CCOCCC1=O [(S)-5-bromo-thiophene-2-carboxylic acid-N-{3-[3-methyl-4-(5-oxo-[1,4]oxazepan-4-yl)-phenylcarbamoyl]-tetrahydrofuran-3-yl}-amide]

IC50 at an approximately x-fold lower plasma concentration compared to the (R)-enantiomer / corresponding (3R)-diastereoisomer [1]: approximately 17 fold
Structure (SMILES): Cc1cc(NC(=O)[C@]2(NC(=O)c3ccc(Cl)s3)CCOC2)ccc1N1CCOCC/C1=N\C#N [(S)-5-chloro-thiophene-2-carboxylic acid-N-{3-[3-methyl-4-(5-cyanimin-[1.4]oxazepan-4-yl)-phenylcarbamoyl]-tetrahydrofuran-3-yl}-amide]

IC50 at an approximately x-fold lower plasma concentration compared to the (R)-enantiomer / corresponding (3R)-diastereoisomer [1]: approximately 15 fold
Structure (SMILES): N#C/N=C1\CCOCCN1c1ccc(NC(=O)[C@]2(NC(=O)c3ccc(Cl)s3)CCOC2)cc1 [(S)-5-chloro-thiophene-2-carboxylic acid-N-{3-[4-(5-cyanimin-[1.4]oxazepan-4-yl)-phenylcarbamoyl]-tetrahydrofuran-3-yl}-amide]
